# Entries after “also recorded” stand apart in the source; their conditions may differ. Read-outs that look alike come from different tables or passages of the source. Where a SMILES comes first, the peptide text is derived from it. Bridges are numbered along the chain shown (N, C = ends). Where no end group is shown, it is not given here. [ ]: non-standard residue; d: D form. R5 = C=CCCC[C@@](C)(N)C(=O)O
# Assays:
# [1] = Incubation with mouse plasma; type: in vitro ADME
# Procedure: (§1) To examine the physicochemical stability of SAH-mAH2-5, mAH2, Pep2-mAH2, and SAH-mAH2-5 were incubated with proteinase K, pepsin, and mouse plasma.
# PDOX model of PDAC = assay: PDO xenograft (PDOX) models in nude mice, tumor volume and survival; type: in vivo, Nude BALB/c mice; settings: high USP10 and N1ICD expression; 1/2/3/4/5 mg/kg intravenously weekly
# Procedure: All animal experimental procedures met institutional ethical requirements and were approved by the Animal Use and Care Committee of Shanghai Jiaotong University School of Medicine. Nude BALB/c mice (male, 4 to 6 weeks old) were purchased from the Chinese Academy of Sciences (Shanghai, China) and kept in a specific pathogen-free facility. For a subcutaneously-injected tumor model, the pancreatic cancer patient-derived organoids (5×10^6 cells/site) were injected subcutaneously into the right side of each mouse. From the first injection, a tumor volume was measured every 7 d using the formula: tumor volume (mm^3)=½(a×b^2), where “a” represented the longest longitudinal diameter and “b” represented the longest transverse diameter.
# To evaluate the efficacy of SAH-mAH2-5 in vivo, Capan1 cells (1×10^7 cells/site) and four organoids (5×10^6 cells/site) were subcutaneously injected. One week after inoculation, SAH-CTRL/SAH-mAH2-5 (1/2/3/4/5 mg/kg) and GEM (50 mg/kg) were intravenously injected weekly at the indicated concentrations. Within 35 d from the first injection, the tumor volume was measured every 7 d, and the formula was: tumor volume (mm^3)=½(a×b^2). […]
# N1ICD = assay: Western blot of N1ICD expression, stability and ubiquitination in Capan1 cells; type: cell-based
# Excerpt: (§2) The pancreatic cancer cell line Capan1 was purchased from the Cell Bank of the Chinese Academy of Sciences. The cells were STR-identified, negative for mycoplasma, and cultured in the RPMI 1640 supplemented with 10% fetal bovine serum and antibiotics.
# (§3) A RIPA buffer was mixed with a cocktail of proteases and phosphatase inhibitors for lysing cell samples. Proteins were separated by 10% SDS-PAGE and transferred to a PVDF membrane. The images were generated by a Tanon 5200 chemiluminescence imaging system (Shanghai Tanon Life Science Instrument Co., Ltd.). The corresponding proteins were detected with primary antibodies and appropriate secondary antibodies. The primary antibodies were as follows: anti-USP10 (CST, #8501, 1:1000 for WB, 1:200 for IP), anti-β-actin (CST, #3700, 1:1000 for WB), and anti-N1ICD (CST, #4147, 1:1000 for WB, 1:200 for IP).
# (§4) Immunoprecipitation analysis: pancreatic cancer cells transfected with indicated plasmid or lentivirus were collected and lysed for 10 min on ice. A resulting lysate was centrifuged to obtain a supernatant, which was then incubated with appropriate antibodies and protein A/G+agarose (Santa Cruz Biotechnology) overnight at 4° C. A resulting immune complex was washed 4 to 6 times and boiled in a 2×SDS sample buffer for 5 min. A resulting product was separated and co-precipitated using SDS-PAGE and blotted with specific antibodies. A resulting binding protein was dissolved in the SDS sample buffer and analyzed by immunoblotting.
# [2] = tested on: pancreatic cancer patient-derived organoids; assay: Growth of pancreatic cancer patient-derived organoids (PDOs); type: cell-based, human
# Excerpt: Four pancreatic cancer tissues were obtained from Ruijin Hospital Affiliated to Shanghai Jiaotong University School of Medicine for organoid culture. All enrolled patients met the following criteria: (i) pathologically diagnosed with pancreatic cancer; (ii) with relatively complete clinicopathological and follow-up data; (iii) without preoperative chemotherapy. Written informed consent was obtained from all relevant patients for the trial, and the study protocol was approved by the Ethics Committee of Ruijin Hospital.
# Establishment of patient-derived pancreatic cancer organoids: the normal pancreatic tissues were excised, remaining pancreatic cancer tissues were minced, and enzymatically digested with collagenase (1 mg/ml to 2 mg/ml; Sigma-Aldrich, C9407) in a water bath at 37° C. for 1 h to 2 h. A resulting suspension was filtered through a 100 μm filter to retain tissue debris. The tissue debris was centrifuged at 530 g for 5 min to obtain organoid fractions and resuspended in an RPMI 1640 medium; a resulting suspension was mixed with a cold Matrigel (BD Biocoat, 356234, 10 mg/ml) and then solidified on a pre-warmed 24-well suspension plate at 37° C. for 20 min. After complete gelation, […] of an organoid medium was added to each well, and the plate was transferred to a 37° C./5% humidified CO2 incubator with 2% or ambient O2. […]
# ANK domain of N1ICD [3] = target: T1, ANK domain of N1ICD (Homo sapiens, UniProt P46531); assay: SPR binding to the ANK domain
# Procedure: (§5) Surface plasmon resonance (SPR) analysis was conducted with a BlAcore T200 instrument (GE Healthcare, Pittsburgh, USA) to analyze the binding kinetics between N1DARP or SAH-mAH2-5 and a monitor peptide. Dissociation constants (KD) were calculated according to BIA evaluation software.
# (§6) A tertiary structure simulating the N1DARP was analyzed online using I-TASSAR, a hierarchical server for protein structure prediction, and two α-helical peptides (AH1 and AH2) were identified (FIG. 1A, left side). […] Furthermore, in order to identify the essential amino acids that mediated the interaction between mAH2 and ANK, amino acid substitutions were conducted for each amino acid of mAH2 substituted with Ala, which were then subjected to SPR analysis. […] Based on the above evidence, mAH2 was then further modified by inserting molecular staples at 5 positions and denoted as stapled α-helices (SAHs).
# Target sequence in this assay (P46531 1872-2126 limits assumed): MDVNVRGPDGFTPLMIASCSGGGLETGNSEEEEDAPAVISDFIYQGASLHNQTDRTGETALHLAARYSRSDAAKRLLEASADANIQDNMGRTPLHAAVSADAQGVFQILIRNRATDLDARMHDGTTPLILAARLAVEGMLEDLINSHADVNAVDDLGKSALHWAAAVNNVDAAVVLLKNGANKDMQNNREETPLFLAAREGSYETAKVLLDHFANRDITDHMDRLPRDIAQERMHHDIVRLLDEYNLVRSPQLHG
# USP10-N1ICD interaction = target: T2, USP10-N1ICD interaction (Homo sapiens, UniProt P46531); assay: Immunoprecipitation/Western blot of the USP10-N1ICD interaction in Capan1 cells; type: cell-based
# T2 construct: endogenous in cells; host or cells: Capan1
# Excerpt: as §2, §3
# as §4, with “A resulting product was separated and co-precipitated using SDS-PAGE and blotted with specific antibodies.” left out
# [4] = In vivo safety in healthy mice (serum biochemistry, HE staining); settings: 2 mg/kg intravenously weekly for 4 weeks
# Procedure: To roughly assess the toxicity of SAH-mAH2-5, healthy BALB/c nude mice (5 weeks) were intravenously injected with SAH-CTRL or SAH-mAH2-5 (2 mg/kg) weekly for 4 weeks. The mice were sacrificed, and organs such as pancreas, lung, spleen, kidney, liver, and colon were extracted, which were then subjected to HE staining to screen morphological abnormalities. In addition, serum was collected for biochemical analysis of alanine aminotransferase (ALT), aspartate aminotransferase (AST), blood urea nitrogen (BUN), and creatinine (CR) by a chemical analyzer TBA-40FR (Toshiba Medical Systems, Japan).
# proteinase K, pepsin = assay: Incubation with proteinase K and pepsin; type: in vitro ADME
# Procedure: as §1
# ANK domain of N1ICD [5] = target: T1, ANK domain of N1ICD; assay: KD (M)
# Excerpt: Table printed on a drawing sheet, FIG. 1C
# (§7) Head of the field: KD (M)
# First copying reader's note: Brackets drawn over the sequences join the two S5 residues of each staple; the SAH-mAH2-5 row is printed in lighter (highlighted) type.
# Target sequence in this assay (P46531 19-2555 limits assumed): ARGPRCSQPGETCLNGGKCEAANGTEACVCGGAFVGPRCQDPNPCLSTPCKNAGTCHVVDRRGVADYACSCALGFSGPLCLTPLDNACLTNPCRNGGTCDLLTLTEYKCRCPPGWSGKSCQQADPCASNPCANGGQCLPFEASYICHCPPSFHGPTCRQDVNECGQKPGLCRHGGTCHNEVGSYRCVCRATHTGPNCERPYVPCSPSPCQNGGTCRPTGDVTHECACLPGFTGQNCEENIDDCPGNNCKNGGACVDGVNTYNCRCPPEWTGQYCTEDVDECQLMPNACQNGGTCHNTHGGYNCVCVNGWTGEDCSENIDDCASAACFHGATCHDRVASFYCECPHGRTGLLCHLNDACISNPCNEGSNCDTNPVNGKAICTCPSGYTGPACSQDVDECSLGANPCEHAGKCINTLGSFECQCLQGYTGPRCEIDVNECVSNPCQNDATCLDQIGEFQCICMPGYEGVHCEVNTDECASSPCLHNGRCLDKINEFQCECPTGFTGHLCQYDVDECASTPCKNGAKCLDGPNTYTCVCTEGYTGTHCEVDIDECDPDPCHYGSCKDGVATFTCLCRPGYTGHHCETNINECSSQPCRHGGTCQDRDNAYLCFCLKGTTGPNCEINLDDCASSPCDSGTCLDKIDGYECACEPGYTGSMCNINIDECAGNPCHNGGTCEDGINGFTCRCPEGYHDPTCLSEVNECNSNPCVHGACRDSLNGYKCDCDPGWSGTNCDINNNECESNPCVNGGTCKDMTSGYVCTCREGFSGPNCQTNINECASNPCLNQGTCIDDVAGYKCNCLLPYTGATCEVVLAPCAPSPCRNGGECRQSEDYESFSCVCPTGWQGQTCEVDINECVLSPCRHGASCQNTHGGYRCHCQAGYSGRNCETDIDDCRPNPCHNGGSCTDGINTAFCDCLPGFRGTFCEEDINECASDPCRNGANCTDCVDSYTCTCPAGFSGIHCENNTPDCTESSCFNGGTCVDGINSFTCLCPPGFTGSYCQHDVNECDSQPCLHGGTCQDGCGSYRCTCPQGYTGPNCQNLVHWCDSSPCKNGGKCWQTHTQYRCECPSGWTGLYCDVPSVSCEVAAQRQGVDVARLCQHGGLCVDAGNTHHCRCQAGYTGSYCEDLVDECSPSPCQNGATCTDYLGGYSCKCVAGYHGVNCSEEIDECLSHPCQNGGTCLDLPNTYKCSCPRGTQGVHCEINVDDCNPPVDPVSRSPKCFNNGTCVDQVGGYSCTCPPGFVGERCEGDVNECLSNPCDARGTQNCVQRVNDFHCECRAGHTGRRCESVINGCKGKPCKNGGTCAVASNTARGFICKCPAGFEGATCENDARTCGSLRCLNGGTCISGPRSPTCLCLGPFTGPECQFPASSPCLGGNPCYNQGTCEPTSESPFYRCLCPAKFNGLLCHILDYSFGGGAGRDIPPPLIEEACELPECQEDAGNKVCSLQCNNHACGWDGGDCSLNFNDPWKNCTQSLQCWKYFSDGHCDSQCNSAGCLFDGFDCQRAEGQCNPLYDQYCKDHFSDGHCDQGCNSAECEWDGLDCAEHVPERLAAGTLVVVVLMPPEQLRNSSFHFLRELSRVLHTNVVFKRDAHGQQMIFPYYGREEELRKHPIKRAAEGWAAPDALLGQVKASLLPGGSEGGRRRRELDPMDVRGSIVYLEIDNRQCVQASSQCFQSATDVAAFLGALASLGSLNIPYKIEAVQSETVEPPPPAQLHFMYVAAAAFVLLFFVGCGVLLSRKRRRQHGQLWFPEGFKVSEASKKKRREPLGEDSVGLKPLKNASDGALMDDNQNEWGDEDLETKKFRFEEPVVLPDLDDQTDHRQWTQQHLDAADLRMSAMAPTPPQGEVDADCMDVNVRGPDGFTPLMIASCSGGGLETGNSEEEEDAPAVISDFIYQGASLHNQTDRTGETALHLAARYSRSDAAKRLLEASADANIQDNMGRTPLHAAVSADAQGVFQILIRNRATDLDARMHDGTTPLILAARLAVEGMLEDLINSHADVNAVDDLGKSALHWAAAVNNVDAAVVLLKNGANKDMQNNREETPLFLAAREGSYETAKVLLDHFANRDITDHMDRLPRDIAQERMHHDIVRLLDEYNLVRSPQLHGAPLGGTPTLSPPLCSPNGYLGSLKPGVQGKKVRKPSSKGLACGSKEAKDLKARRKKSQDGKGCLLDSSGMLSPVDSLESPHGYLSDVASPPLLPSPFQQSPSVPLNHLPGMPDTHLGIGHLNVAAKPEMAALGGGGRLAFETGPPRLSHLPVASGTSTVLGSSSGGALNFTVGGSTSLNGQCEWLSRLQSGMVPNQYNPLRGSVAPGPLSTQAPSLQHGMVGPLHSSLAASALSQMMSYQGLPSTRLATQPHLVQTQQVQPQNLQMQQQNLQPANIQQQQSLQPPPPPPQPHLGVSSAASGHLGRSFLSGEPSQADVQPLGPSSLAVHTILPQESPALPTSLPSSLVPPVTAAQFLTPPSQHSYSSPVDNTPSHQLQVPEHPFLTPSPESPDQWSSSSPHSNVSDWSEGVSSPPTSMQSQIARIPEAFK
# ANK1 = assay: SPR binding to the α-helical regions ANK1 to ANK6
# Procedure: as §5, §6
# ANK domain of N1ICD [6] = target: T1, ANK domain of N1ICD; assay: KD (M); remark: listed apart in the source
# Excerpt: Table printed on a drawing sheet, FIG. 1D
# as §7
# Target sequence in this assay (P46531 19-2555 limits assumed): as above
# First copying reader's note: Alanine scan of mAH2; the substituted A is printed in lighter type, and the rows mAH2-7, mAH2-9 and mAH2-14 are highlighted in lighter type.
# Where the first naming reader finds the target: passage: A tertiary structure of the ANK domain of N1ICD was obtained from a PDB database
# T2 sequence (P46531 1754-2555 limits assumed): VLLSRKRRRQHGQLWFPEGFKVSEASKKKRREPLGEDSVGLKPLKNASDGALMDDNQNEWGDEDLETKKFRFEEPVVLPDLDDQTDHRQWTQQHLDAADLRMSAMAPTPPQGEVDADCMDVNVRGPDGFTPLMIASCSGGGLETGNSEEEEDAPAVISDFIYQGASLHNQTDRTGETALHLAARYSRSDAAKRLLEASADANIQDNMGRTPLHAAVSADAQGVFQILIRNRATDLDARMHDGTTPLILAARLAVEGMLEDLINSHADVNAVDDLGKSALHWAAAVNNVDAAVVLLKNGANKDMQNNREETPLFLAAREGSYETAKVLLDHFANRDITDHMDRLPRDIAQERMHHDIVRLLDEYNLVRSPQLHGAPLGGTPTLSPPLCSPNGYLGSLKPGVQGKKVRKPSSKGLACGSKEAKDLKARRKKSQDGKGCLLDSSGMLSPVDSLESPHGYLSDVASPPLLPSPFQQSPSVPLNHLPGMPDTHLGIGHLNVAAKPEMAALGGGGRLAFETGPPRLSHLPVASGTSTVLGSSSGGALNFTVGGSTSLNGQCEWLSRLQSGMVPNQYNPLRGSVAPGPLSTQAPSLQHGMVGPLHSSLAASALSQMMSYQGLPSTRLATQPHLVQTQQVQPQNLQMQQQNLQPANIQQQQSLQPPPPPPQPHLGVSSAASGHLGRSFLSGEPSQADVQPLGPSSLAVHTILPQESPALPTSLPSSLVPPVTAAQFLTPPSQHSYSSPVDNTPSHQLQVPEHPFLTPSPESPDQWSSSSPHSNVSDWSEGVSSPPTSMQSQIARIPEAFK
molecule,measurement,setting,value
"CC[C@H](C)[C@H](NC(=O)[C@H](CCCNC(=N)N)NC(=O)[C@H](CCCCN)NC(=O)[C@H](C)NC(=O)[C@@H](N)Cc1ccc(O)cc1)C(=O)N[C@]1(C)CCC/C=C/CCC[C@](C)(C(=O)N[C@@H](CC(C)C)C(=O)O)NC(=O)[C@H](CCCCN)NC(=O)[C@H](CO)NC(=O)[C@H](CC(C)C)NC(=O)[C@H](CC(C)C)NC(=O)[C@H](CCC(N)=O)NC(=O)[C@H](Cc2ccc(O)cc2)NC1=O [SAH-mAH2-5, stapled α-helix-modified α-helix 2-5] (H-YAKRI[R5]YQLLSK[R5]L-OH; staple (E) 6-13)",half-life in plasma,[1],prolonged the half-life in plasma
same,median survival,PDOX model of PDAC,prolonged median survival
same,N1ICD deubiquitination,N1ICD; Capan1 cells,inhibited
same,Notch signaling and N1ICD expression,N1ICD; Capan1 cells,inhibiting Notch signaling and its N1ICD expression in a time- and dose-dependent manner
same,N1ICD stability,N1ICD; Capan1 cells after cycloheximide (CHX),inhibited N1ICD stability
same,organoid growth inhibition,[2]; PDAC with high USP10 and N1ICD expression levels,significant organoid growth inhibition
same,inhibition effect,[2]; PDAC-1 and PDAC-3 models with relatively low USP10 and N1ICD expression levels,poor inhibition effect
same,affinity for the ANK domain,ANK domain of N1ICD [3],strongest binding ability; also recorded: highest affinity for ANK
same,USP10-N1ICD interaction,USP10-N1ICD interaction,inhibit USP10-N1ICD interaction
same,morphology of major organs (HE staining),[4],"without affecting the liver, lungs, and kidneys and other major normal tissues and organs; also recorded: no morphological changes in major functional organs"
same,"serum ALT, AST, BUN and creatinine",[4],no abnormalities in the main indicators of liver and kidney functions
same,resistance to proteases,"proteinase K, pepsin",significantly enhanced the resistance to proteases
CC[C@H](C)[C@H](NC(=O)[C@H](CCCNC(=N)N)NC(=O)[C@H](CCCCN)NC(=O)[C@H](C)NC(=O)[C@@H](N)Cc1ccc(O)cc1)C(=O)N[C@]1(C)CCC/C=C\CCC[C@](C)(C(=O)N[C@@H](CO)C(=O)N[C@@H](CCCCN)C(=O)N[C@@H](CCC(N)=O)C(=O)N[C@@H](CC(C)C)C(=O)O)NC(=O)[C@H](CC(C)C)NC(=O)[C@H](CCC(N)=O)NC(=O)[C@H](Cc2ccc(O)cc2)NC1=O [SAH-mAH2-3] (H-YAKRI[R5]YQL[R5]SKQL-OH; staple (Z) 6-10),Kd,ANK domain of N1ICD [5],0.00105 µM
YAKRIFYQLLSKEL [AH2],interaction with ANK1,ANK1,readily interacted with ANK1
same,affinity for the ANK domain,ANK domain of N1ICD [3],higher affinity to the ANK domain
same,Kd,ANK domain of N1ICD [6],0.0604 µM
"YAKRIFYQLLSKQL [mAH2, YAKRIFYQLLSKQL]",Kd,ANK domain of N1ICD [5],0.0604 µM
same,affinity for the ANK domain,ANK domain of N1ICD [3],comparable affinity for ANK

# From patent US12116422B2, “Stapled peptide and use thereof in preparation of drug for treating pancreatic cancer” (Ruijin Hospital, Shanghai Jiao Tong University School of …, priority 2022, dated 2024)
